How the values were obtained:
ob/ob mice = assay: Effectiveness in lowering blood glucose level in ob/ob mice; assay type: in vivo
Method: The resulting solution was intraperitoneally administered to the mice at a dose of 50 mg/kg, once a day for 5 days, or orally administered to the mice, at a dose of 100 mg/kg, twice a day for 14 days. Days 1, 3 and 5 were selected for intraperitoneal administration, and days 5, 10 and 14, for oral administration, to collect blood samples for measuring the blood glucose levels. […] Upon the completion of the oral administration for 14 days, the mice were fasted for 16 hrs to perform OGTT (Oral Glucose Tolerance Test) to determine the changes in insulin sensitivity induced by the oral administration. After administrating glucose to the mice at a dose of 2 g/kg orally, blood samples were collected at 0, 15, 30 60 and 120 minutes to measure blood glucose levels.

[1] = Adverse side effects check (weight, heart weight, liver weight, GPT/GOT) in high fat diet C57/BL6J mice; assay type: in vivo; details: for GOT / GPT / Heart Weight / Liver Weight / Weight: high fat diet C57/BL6J mice, oral administration for 14 days
Method: To check possible adverse side effects caused by the administration of the compound, the weight, heart weight and liver weight of each mouse were measured. GPT and GOT values were also calculated by employing a kit available in the market.

C57/BL6J mice = assay: Suppression of blood glucose and insulin levels in high fat diet C57/BL6J mice; assay type: in vivo
From the text: Days 1, 3 and 5 were selected for intraperitoneal administration, and days 5, 10 and 14, for oral administration, to collect blood samples for measuring the blood glucose levels. […] Upon the completion of the oral administration for 14 days, the mice were fasted for 16 hrs to perform OGTT (Oral Glucose Tolerance Test) to determine the changes in insulin sensitivity induced by the oral administration. After administrating glucose to the mice at a dose of 2 g/kg orally, blood samples were collected at 0, 15, 30 60 and 120 minutes to measure blood glucose levels.
The extents of suppression of blood glucose and insulin levels were measured as mentioned above. To check possible adverse side effects caused by the administration of the compound, the weight, heart weight and liver weight of each mouse were measured. GPT and GOT values were also calculated by employing a kit available in the market.

human PPARγ = target: T1, human PPARγ (Homo sapiens, UniProt P37231); assay: PPARγ activation test (GAL-4/luciferase reporter in NIH/3T3 cell); assay type: cell-based; details: GAL-4/human PPARγ LBD luciferase reporter, 24 hrs incubation
T1 construct: expressed in transfected cells; host or cells: NIH/3T3 cells (mouse fibroblasts)
T1 sequence (P37231 238-503 limits assumed): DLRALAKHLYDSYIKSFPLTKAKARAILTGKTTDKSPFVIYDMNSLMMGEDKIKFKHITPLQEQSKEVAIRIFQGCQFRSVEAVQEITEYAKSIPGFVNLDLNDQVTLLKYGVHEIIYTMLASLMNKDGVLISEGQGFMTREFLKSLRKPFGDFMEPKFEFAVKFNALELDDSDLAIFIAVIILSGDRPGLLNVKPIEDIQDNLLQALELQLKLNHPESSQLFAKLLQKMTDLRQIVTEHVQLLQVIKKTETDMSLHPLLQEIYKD
Method: The activity for PPARγ activation was examined as follows.
The vector fused with the ligand binding domain of a human PPARγ gene and the DNA binding site of a yeast GAL-4 gene, and luciferase reporter vector were simultaneously transfected in NIH/3T3 cell. The cells were cultured for 24 hrs. The solution containing the cells at a concentration of 2×10^4 cells/well was placed on a 96-well plate. Then, each of the test compounds of the present invention or the control group without test compounds was added thereto. After incubating for 24 hrs, the cells were subjected to lysis.

[2] = high fat diet C57/BL6J mice, after 14 days oral administration
[3] = high fat diet C57/BL6J mice, oral administration once a day for 14 days

Compound: 1-hydroxy-6-(2-morpholine-4-yl-ethoxy)-1,3-diphenyl-1H-indene-2-carboxylic acid ethyl ester [Example 8]
- % Inhibition, Oral Glucose Tolerance Test (Blood Glucose) (ob/ob mice; ob/ob mice after 14 days oral administration, fasted 16 hrs, glucose 2 g/kg orally, total blood glucose over 120 minutes): 10.2%
- % Inhibition, blood glucose, Intraperitoneal Administration (50 mg/kg/day) (ob/ob mice; ob/ob mice, i.p. 50 mg/kg once a day for 5 days, relative to control): 32.0%
- % Inhibition, blood glucose, Oral Administration (100 mg/kg/day) (ob/ob mice; ob/ob mice, oral 100 mg/kg twice a day for 14 days, relative to control): 23.7%
- GOT [1]: 39 ± 7.8 karmen
- GPT [1]: 29 ± 3.2/ karmen
- Heart Weight [1]: 0.123 ± 0.007 g
- Liver Weight [1]: 1.06 ± 0.17 g
- Weight [1]: 35 ± 1.1 g
- side effects (weight gain, hepatotoxicity, cardiotoxicity) ([1]; summary of Tables 6, 7 and 8): no side effects such as weight gain, hepatotoxicity or cardiotoxicity
- effect in lowering blood glucose and insulin levels (C57/BL6J mice; administered orally or intraperitoneally, summary of Tables 6, 7 and 8): excellent effect in lowering both blood glucose and insulin levels
- % Inhibition, Oral Glucose Tolerance Test (Glucose) (C57/BL6J mice; [2]): 23.8%
- % Inhibition, Oral Glucose Tolerance Test (Insulin) (C57/BL6J mice; [2]): 56.2%
- % Inhibition, Blood glucose concentration (C57/BL6J mice; [3]): 30.0%
- % Inhibition, Blood insulin concentration (C57/BL6J mice; [3]): 44.6%

Compound: CC(C)OC(=O)C1=C(c2ccccc2)c2ccc(OCCN3CCOCC3)cc2/C1=[N+](/C)[O-] [Compound 8]
- EC50 (human PPARγ): 25 nM
- melting point: 79 to 81 °C

Compound: CCOC(=O)C1=C(c2ccccc2)c2ccc(OCCCCCc3ccccc3)cc2/C1=[N+](/C)[O-] [Compound 15, 1-(trans-methylimino-N-oxy)-3-phenyl-6-(5-phenylpentyloxy)-1H-indene-2-carboxylate ethyl ester]
- EC50 (human PPARγ): 150 nM

Compound: CCOC(=O)C1=C(c2ccccc2)c2ccc(OCCC3CCCCC3)cc2/C1=[N+](/C)[O-] [Compound 25, 6-(2-cyclohexylethoxy)-1-(trans-methylimino-N-oxy)-3-phenyl-1H-indene-2-carboxylate ethyl ester]
- EC50 (human PPARγ): 50 nM

Compound: CCOC(=O)C1=C(c2ccccc2)c2ccc(OCCN3CCOCC3)cc2/C1=[N+](/C)[O-] [Compound 33, 1-(trans-methylimino-N-oxy)-6-(2-morpholine-4-ylethoxy)-3-phenyl-1H-indene-2-carboxylate ethyl ester]
- melting point: 102 to 104 °C

Compound: CC(C)NC(=O)C1=C(c2ccccc2)c2ccc(OCCCc3ccccc3)cc2/C1=[N+](/C)[O-] [Compound 38, 1-(trans-methylimino-N-oxy)-3-phenyl-6-(3-phenylpropoxy)-1H-indene-2-carboxylate isopropyl amide]
- EC50 (human PPARγ): 170 nM

Compound: C/[N+]([O-])=C1\C(C(=O)NC2CCCCC2)=C(c2ccccc2)c2ccc(OCCCc3ccccc3)cc21 [Compound 39, 1-(trans-methylimino-N-oxy)-3-phenyl-6-(3-phenylpropoxy)-1H-indene-2-carboxylate cyclohexyl amide]
- EC50 (human PPARγ): 45 nM

Compound: C/[N+]([O-])=C1\C(C(=O)NC2CCCCC2)=C(c2ccccc2)c2ccc(OCCN3CCOCC3)cc21 [Compound 41, 1-(trans-methylimino-N-oxy)-6-(2-morpholine-4-yl-ethoxy)-3-phenyl-1H-indene-2-carboxylate cyclohexyl amide]
- EC50 (human PPARγ): 12 nM

Compound: CCOC(=O)C1=C(c2ccccc2)c2cc(OCCCc3ccccc3)ccc2/C1=[N+](/C)[O-] [Compound 42, 1-(trans-methylimino-N-oxy)-3-phenyl-5-(3-phenylpropoxy)-1H-indene-2-carboxylate ethyl ester]
- EC50 (human PPARγ): 80 nM

Compound: CCOC(=O)C1=C(c2ccccc2)c2ccc(COCCc3ccccc3)cc2/C1=[N+](/C)[O-] [Compound 43, 1-(trans-methylimino-N-oxy)-6-phenethyloxymethyl-3-phenyl-1H-indene-2-carboxylate ethyl ester]
- EC50 (human PPARγ): 80 nM

Compound: CCOC(=O)C1=C(c2ccccc2)c2ccc(OCCN3CCOCC3)cc2/C1=[N+](\C)[O-] [Compound 45, 1-(cis-methylimino-N-oxy)-6-(2-morpholine-4-ylethoxy)-3-phenyl-1H-indene-2-carboxylate ethyl ester]
- melting point: 151 to 152 °C

Compound: CCOC(=O)C1=C(c2ccccc2)c2cc3c(cc2/C1=[N+](/C)[O-])OCO3 [Compound 48, 1-(trans-methylimino-N-oxy)-5,6-methylenedioxy-1-oxo-3-phenyl-1H-indene-2-carboxylate ethyl ester]
- EC50 (human PPARγ): 10 nM
- melting point: 119 to 121 °C

Compound: CC(C)NC(=O)C1=C(c2ccccc2)c2ccc(OCCN3CCOCC3)cc2/C1=[N+](/C)[O-] [Compound 50, 1-(trans-methylimino-N-oxy)-6-(2-morpholine-4-ylethoxy)-3-phenyl-1H-indene-2-carboxylate isopropyl amide]
- EC50 (human PPARγ): 200 nM
- melting point: 123 to 125 °C

Compound: CCOC(=O)C1=C(C2CC2)c2ccc(OCCCc3ccccc3)cc2/C1=[N+](/C)[O-] [Compound 68, 3-cyclopropyl-1-(trans-methylimino-N-oxy)-6-(3-phenylpropoxy)-1H-indene-2-carboxylate ethyl ester]
- EC50 (human PPARγ): 10 nM

Compound: C/[N+]([O-])=C1\C(C(N)=O)=C(c2ccccc2)c2ccc(OCCCc3ccccc3)cc21 [Compound 73, 1-(trans-methylimino-N-oxy)-3-phenyl-6-(3-phenylpropoxy)-1H-indene-2-carboxylate amide]
- EC50 (human PPARγ): 110 nM

Compound: C/[N+]([O-])=C1\C(C#N)=C(c2ccccc2)c2ccc(OCCCc3ccccc3)cc21 [Compound 75, 1-(trans-methylimino-N-oxy)-3-phenyl-6-(3-phenylpropoxy)-1H-indene-2-carbonitrile]
- EC50 (human PPARγ): 95 nM
- melting point: 126 to 128 °C

Compound: CCOC(=O)C1=C(c2ccccc2)c2ccc(CN3CCOCC3)cc2/C1=[N+](/C)[O-] [Compound 77, 1-(trans-methylimino-N-oxy)-6-morpholine-4-ylmethyl-3-phenyl-1H-indene-2-carboxylate ethyl ester]
- EC50 (human PPARγ): 170 nM

Compound: CCOC(=O)C1=C(c2ccccc2)c2ccc(OCCc3ccc(CC)cn3)cc2/C1=[N+](/C)[O-] [Compound 79, 6-[2-(5-ethylpyridine-2-yl)ethoxy]-1-(trans-methylimino-N-oxy)-3-phenyl-1H-indene-2-carboxylate ethyl ester]
- EC50 (human PPARγ): 20 nM

Compound: CC(C)NC(=O)C1=C(c2ccccc2)c2ccc(OCCc3ccccn3)cc2/C1=[N+](/C)[O-] [Compound 80, 1-(trans-methylimino-N-oxy)-3-phenyl-6-(2-pyridine-2-ylethoxy)-1H-indene-2-carboxylate isopropyl amide]
- EC50 (human PPARγ): 100 nM
- melting point: 124 to 126 °C

Compound: CCc1ccc(CCOc2ccc3c(c2)/C(=[N+](/C)[O-])C(C(=O)NC(C)C)=C3c2ccccc2)nc1 [Compound 81, 6-[2-(5-ethylpyridine-2-yl)ethoxy]-1-(trans-methylimino-N-oxy)-3-phenyl-1H-indene-2-carboxylate isopropyl amide]
- EC50 (human PPARγ): 45 nM

Compound: C/[N+]([O-])=C1\C=C(c2ccccc2)c2ccc(OCCN3CCOCC3)cc21 [Compound 82, methyl-[6-(2-morpholine-4-ylethoxy)-3-phenylindene-1-yllidene]amine-N-oxide]
- melting point: 122 to 123 °C

Compound: CC(C)NC(=O)C1=C(c2csc3ccccc23)c2ccc(OCCN3CCOCC3)cc2/C1=[N+](/C)[O-] [Compound 94, 3-benzo-[b]-thiophene-3-yl-1-(trans-methylimino-N-oxy)-6-(2-morpholine-4-ylethoxy)-1H-indene-2-carboxylate isopropyl amide]
- EC50 (human PPARγ): 80 nM
- melting point: 77 to 79 °C

Compound: CC(C)NC(=O)C1=C(c2ccccc2)c2cc(OCCc3ccccn3)ccc2/C1=[N+](/C)[O-] [Compound 99, 1-(trans-methylimino-N-oxy)-3-phenyl-5-(2-pyridine-2-ylethoxy)-1H-indene-2-carboxylate isopropyl amide]
- melting point: 158 to 159 °C

Compound: CC(C)NC(=O)C1=C(c2ccccc2)c2cc(OCCN3CCOCC3)ccc2/C1=[N+](/C)[O-] [Compound 100, 1-(trans-methylimino-N-oxy)-5-(2-morpholine-4-ylethoxy)-3-phenyl-1H-indene-2-carboxylate isopropyl amide]
- melting point: 134 to 137 °C

Compound: CC(C)OC(=O)C1=C(c2ccccc2)c2ccc(OCCN3CCOCC3)cc2/C1=[N+](\C)[O-] [Compound 101, 1-(cis-methylimino-N-oxy)-6-(2-morpholine-4-ylethoxy)-3-phenyl-1H-indene-2-carboxylate isopropyl ester]
- melting point: 153 to 155 °C

Compound: CN(CCOc1ccc(CC2SC(=O)NC2=O)cc1)c1ccccn1 (stereo not shown) [Rosiglitazone, reference compound]
- GOT [1]: 70 ± 8.2 karmen
- GPT [1]: 85 ± 12/ karmen
- Heart Weight [1]: 0.140 ± 0.009 g
- Liver Weight [1]: 1.56 ± 0.18 g
- Weight [1]: 39 ± 1.6 g

From patent publication US7741323B2, “Indene derivatives and process for the preparation thereof” (Korea Research Institute of Chemical Technology, priority 2004, dated 2010)
